Test results published in US20230331777A1, “NOVEL PEPTOID COMPOUNDS THAT BIND TO CELL RECEPTOR ACE2 AND PREVENT VIRUS ENTRY INTO CELLS” (priority 2020, published 2023).
Starred links: 1 amine or outer side, 2 acyl side, 3 side chain; linkers in the order of their positions; H or OH if unused. Positions of bridges follow the written chain, without caps; N, C: chain ends. Non-standard residues stand in square brackets, D forms with d. Residues, ends and D or L forms follow the SMILES beside them. Chains are numbered I, II in the order given. N(4-MeOBn)Gly = COc1ccc(CNCC(=O)O)cc1; N((CH2)3OiPr)Gly = CC(C)OCCCNCC(=O)O; X1 = CC(c1ccccc1)N(CC(=O)[*:2])[*:1]; NAllylGly = C=CCNCC(=O)O; Nleu = CC(C)CNCC(=O)O; Nme = COCCNCC(=O)O

Key:
SARS-CoV-2 pseudovirus = type: cell-based, human H1299 cells
ACE2 protein [1] = molecular target: T1, ACE2 protein (Homo sapiens, UniProt Q9BYF1); assay: Protein Thermal Shift assay; type: binding; conditions: 10 µM peptoid
Description: FIGS. 8A-D illustrate that ACE2P1 and ACE2P2 interact directly with ACE2. FIG. 8A provides experimental results from an in vitro pulldown assay for ACE2P1 and ACE2P2. […] The thermal shift assay was carried out on a QuantStudio 3 Real-Time PCR System.
Next, Applicant created the dimers of ACE2P1 and ACE2P2 (FIG. 8B) and performed thermal shift assays using recombinant ACE2 proteins. Thermal shift assay is routinely used in drug discovery to identify protein-ligand interactions. The Applied Biosystems™ Protein Thermal Shift™ assay measures protein thermal stability using a fluorescent protein-binding dye. […] The protein is mixed with the dye and heated. As it unfolds or melts, hydrophobic parts of the protein are exposed and bind to the dye, resulting in fluorescence emission detected by the qPCR system. Binding of a ligand to the protein changes the stability of the protein, resulting in a change in fluorescence intensity.

ACE2 protein [2] = molecular target: T1, ACE2 protein; assay: ACE2 expression by western blot; type: cell-based; design: endogenous in cells; host or cells: MCF-7 and Caco-2 cells; conditions: MCF-7 and Caco-2 cells, various doses, 48 hours
Description: MCF-7 and Caco-2 cells were treated with various concentrations of ACE2P1D1 or ACE2P2D1 for 48 hours. ACE2 expression was determined by western blot analysis.
As ACE2 is important in blood pressure regulation, Applicant assessed whether the peptoids can decrease ACE2 expression in human cells.

[3] = molecular target: T2, ACE2 protein levels on cell surface (Homo sapiens, UniProt Q9BYF1); assay: ACE2 surface expression by flow cytometry; type: cell-based; conditions: H1299 cells, 48 hours
T2 construct: endogenous in cells; host or cells: H1299 human lung cancer cells
Description: H1299 cells were treated with ACE2P1D1 or ACE2P2D1 for 48 hours. ACE2 surface expression was determined by flow cytometry analysis.
Next, Applicant determined whether or not the peptoids in this Example can decrease ACE2 levels on a cell surface.

ACE2 in MCF-7 cells = molecular target: T3, ACE2 in MCF-7 cells (Homo sapiens, UniProt Q9BYF1); assay: ACE2 enzymatic activity in cell homogenates; type: biochemical; conditions: MCF-7 cell homogenates, captopril 10 µM
T3 construct: endogenous in cells; host or cells: MCF-7 cells
Description: (§1) Assays were run at 37° C. in an ACE2 reaction buffer containing 10 µM Mca-YVADAPK(Dnp), in a total volume of 100 µl. Fluorescence emission at 405 nm, after excitation at 320 nm, was measured in a microplate reader. Cleavage of the substrate Mca-YVADAPK(Dnp) by ACE2 enzyme produces fluorescence. The strength of the fluorescence indicates the ACE2 enzymatic activity.
(§2) To measure ACE2 activity in cells, cell homogenates were used. To prevent hydrolysis of the substrate by a range of nonmetalloprotease enzymes from the cells, cOmplete™ Protease Inhibitor Cocktail (Roche/Sigma) were added to the cell homogenates. To eliminate the effects of ACE on the substrate, ACE inhibitor captopril (10 µM) was added to the assay.

[4] = molecular target: T4, ACE2 in human H1299 cells (Homo sapiens, UniProt Q9BYF1); assay: ACE2 enzymatic activity in cell homogenates; type: biochemical; conditions: captopril 10 µM
T4 construct: endogenous in cells; host or cells: H1299 human lung cancer cells
Description: as §1, §2

ACE2 in Caco-2 cells = molecular target: T5, ACE2 in Caco-2 cells (Homo sapiens, UniProt Q9BYF1); assay: ACE2 enzymatic activity in cell homogenates; type: biochemical; conditions: Caco-2 cell homogenates, captopril 10 µM
T5 construct: endogenous in cells; host or cells: Caco-2 cells
Description: as §1, with “in” for “in an”
as §2

MCF-7 cells = assay: WST-1 cell viability assay; type: cell-based, human; conditions: various concentrations, 48 hours
Description: (§3) MCF-7 and HEK293T cells were treated with various concentrations of ACE2P1D1 (FIG. 12A) or ACE2P2D1 (FIG. 12B) for 48 hours. Cell viability was measured by a WST-1 assay.
(§4) To assess whether the peptoids are toxic to human cells, Applicant performed the WST-1 assay.

HEK293T cells = assay: WST-1 cell viability assay; type: cell-based, human; conditions: various concentrations, 48 hours
Description: as §3, §4

[5] = molecular target: SARS-CoV-2 spike protein binding to ACE2 (Homo sapiens, UniProt Q9BYF1); assay: GST pull-down assay of spike protein-ACE2 interaction; conditions: premixed with ACE2 for 30 minutes; ACE2 detected by western blot
ACE2 protein [6] = molecular target: T1, ACE2 protein; assay: ACE2 enzymatic activity, Mca-YVADAPK(Dnp) fluorescence assay; type: biochemical; conditions: up to 10 µM peptoid; 10 µM Mca-YVADAPK(Dnp), 37° C.
Description: as §1
ACE2 is an enzyme that lowers blood pressure by catalyzing the hydrolysis of angiotensin II. […] Applicant assessed the effects of ACE2P1D1 and ACE2P2D1 on ACE2 enzyme activity on recombinant ACE2 protein.

[7] = tested on: ACE2 expressing MCF-7 cells; assay: on-bead cell binding of resynthesized peptoids (OBTC two-color); type: cell-based, human; conditions: peptoid on tentagel bead; ACE2+ red stained, ACE2- green stained MCF-7 cells
Description: FIG. 6 provides experimental results illustrating that on-bead peptoids ACE2P1 and ACE2P2 bind to human ACE2 positive cells. The compounds ACE2P1 and ACE2P2 were resynthesized on the tentagel bead and incubated with ACE2 expressing MCF-7 cells (red stained) and ACE2 negative MCF-7 cells (green stained) individually as well as 1:1 mixture of red and green cells.
Applicant resynthesized the identified ACE2P1 and ACE2P2 peptoids on-bead and introduced human ACE2^+ (red stained) and ACE2^- (green stained) MCF-7 cells separately to these two peptoid carrying beads.

ACE2 protein [8] = molecular target: T1, ACE2 protein; assay: in vitro pulldown assay with peptoid conjugated beads; type: binding; conditions: 4° C. overnight, western blotting
Description: To confirm a direct interaction between the peptoids and ACE2, Applicant performed in vitro pulldown assays. Recombinant human ACE2 protein was incubated with ACE2P1 or ACE2P2 conjugated beads at 4° C. overnight. The beads were then washed with PBS buffer for 3 times, and the binding proteins were eluted with 1% SDS. The yielded lysates were then applied onto 10% SDS-PAGE gel and subjected to western blotting (FIG. 8A).

Chain of SARS-CoV-2 spike protein binding to ACE2 (Q9BYF1 18-740): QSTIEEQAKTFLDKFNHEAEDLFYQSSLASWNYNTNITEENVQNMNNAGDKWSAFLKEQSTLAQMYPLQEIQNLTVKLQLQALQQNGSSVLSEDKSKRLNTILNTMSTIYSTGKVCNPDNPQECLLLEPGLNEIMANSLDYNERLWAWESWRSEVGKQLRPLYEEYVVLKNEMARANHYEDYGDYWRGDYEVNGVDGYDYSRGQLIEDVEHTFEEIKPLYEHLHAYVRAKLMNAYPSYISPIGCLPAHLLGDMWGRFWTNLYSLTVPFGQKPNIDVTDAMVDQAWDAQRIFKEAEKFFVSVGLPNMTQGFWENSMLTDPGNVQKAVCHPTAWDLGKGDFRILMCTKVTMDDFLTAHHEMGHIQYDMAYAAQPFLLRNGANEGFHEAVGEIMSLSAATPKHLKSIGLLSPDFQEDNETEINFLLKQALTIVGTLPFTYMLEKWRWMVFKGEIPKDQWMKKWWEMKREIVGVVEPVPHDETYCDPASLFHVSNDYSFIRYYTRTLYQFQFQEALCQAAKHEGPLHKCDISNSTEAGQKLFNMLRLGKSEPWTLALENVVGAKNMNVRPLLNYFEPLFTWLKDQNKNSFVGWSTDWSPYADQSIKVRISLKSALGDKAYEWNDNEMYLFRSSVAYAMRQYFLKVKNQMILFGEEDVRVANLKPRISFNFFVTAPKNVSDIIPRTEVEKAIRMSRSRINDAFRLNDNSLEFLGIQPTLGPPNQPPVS
T1 sequence (Q9BYF1 18-805): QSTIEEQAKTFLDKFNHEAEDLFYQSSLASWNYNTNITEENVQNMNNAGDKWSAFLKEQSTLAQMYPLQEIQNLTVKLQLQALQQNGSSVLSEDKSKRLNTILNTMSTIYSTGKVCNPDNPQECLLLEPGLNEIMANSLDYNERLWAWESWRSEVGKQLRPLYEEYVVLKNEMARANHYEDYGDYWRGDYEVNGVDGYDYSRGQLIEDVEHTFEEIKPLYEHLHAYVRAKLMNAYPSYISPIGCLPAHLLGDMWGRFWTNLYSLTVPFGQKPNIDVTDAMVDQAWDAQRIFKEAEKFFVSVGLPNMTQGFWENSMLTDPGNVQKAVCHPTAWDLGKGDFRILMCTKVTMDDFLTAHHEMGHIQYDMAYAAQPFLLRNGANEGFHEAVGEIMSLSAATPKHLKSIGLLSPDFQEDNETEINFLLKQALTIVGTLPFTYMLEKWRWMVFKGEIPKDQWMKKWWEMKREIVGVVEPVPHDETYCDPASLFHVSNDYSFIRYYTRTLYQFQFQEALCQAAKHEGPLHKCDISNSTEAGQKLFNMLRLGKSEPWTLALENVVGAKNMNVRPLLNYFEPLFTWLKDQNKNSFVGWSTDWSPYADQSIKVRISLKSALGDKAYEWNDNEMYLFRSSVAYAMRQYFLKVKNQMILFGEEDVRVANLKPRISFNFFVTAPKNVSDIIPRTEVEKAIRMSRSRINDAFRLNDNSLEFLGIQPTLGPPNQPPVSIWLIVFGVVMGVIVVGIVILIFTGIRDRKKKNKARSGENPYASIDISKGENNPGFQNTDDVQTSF
T2 sequence (Q9BYF1 18-805): as above
T3 sequence (Q9BYF1 18-805): as above
T4 sequence (Q9BYF1 18-805): as above
T5 sequence (Q9BYF1 18-805): as above

Compound	SARS-CoV-2 pseudovirus infection (SARS-CoV-2 pseudovirus)	change in protein melting temperature (ACE2 protein [1])	expression levels of ACE2 protein (ACE2 protein [2])	ACE2 protein levels on cell surface [3]	enzymatic activity of ACE2 (ACE2 in MCF-7 cells)	enzymatic activity of ACE2 [4]	enzymatic activity of ACE2 (ACE2 in Caco-2 cells)	cell viability (MCF-7 cells)	cell viability (HEK293T cells)	binding of spike protein to ACE2 [5]	ACE2 enzyme activity (ACE2 protein [6])	binding of peptoid beads to ACE2+ versus ACE2- MCF-7 cells [7]	pull down of ACE2 protein (ACE2 protein [8])
C=CCN(CC(=O)N(CC(=O)NC(CCCCN)C(=O)NC(CCSC)C(=O)NCCCCC(NC(=O)C(CCSC)NC(=O)C(CCCCN)NC(=O)CN(C(=O)CN(CC=C)C(=O)CN(Cc1ccc(OC)cc1)C(=O)CN(C(=O)CN(CCOC)C(=O)CNCC(C)C)C(C)c1ccccc1)C(C)c1ccccc1)C(N)=O)C(C)c1ccccc1)C(=O)CN(Cc1ccc(OC)cc1)C(=O)CN(C(=O)CN(CCOC)C(=O)CNCC(C)C)C(C)c1ccccc1 (stereo not shown) [ACE2P1D1] (I: H-[Nleu][Nme][X1][N(4-MeOBn)Gly][NAllylGly][X1]KMK-NH2 / II: H-[Nleu][Nme][X1][N(4-MeOBn)Gly][NAllylGly][X1]KM; amide I:9-II:C; configuration not given here)	effective in inhibiting SARS-CoV-2 pseudovirus infection	increase in protein melting temperature	did not decrease the expression levels of ACE2 protein	did not decrease the ACE2 protein levels on cell surface	did not affect the enzymatic activity of ACE2	did not affect the enzymatic activity of ACE2	did not affect the enzymatic activity of ACE2	no effects on the viability	no effects on the viability	prevented the binding of spike protein to ACE2	no effects on ACE2 activity		
C=CCN(CC(=O)N(CC(=O)NC(CCCCN)C(=O)NC(CCSC)C(N)=O)C(C)c1ccccc1)C(=O)CN(Cc1ccc(OC)cc1)C(=O)CN(C(=O)CN(CCOC)C(=O)CNCC(C)C)C(C)c1ccccc1 (stereo not shown) [ACE2P1] (H-[Nleu][Nme][X1][N(4-MeOBn)Gly][NAllylGly][X1]KM-NH2; configuration not given here)										increased the binding of spike protein to ACE2		bound only to red stained ACE2^+ cells	able to pull down the ACE2 protein
COCCN(CC(=O)NC(CCCCN)C(=O)NC(CCSC)C(=O)NCCCCC(NC(=O)C(CCSC)NC(=O)C(CCCCN)NC(=O)CN(CCOC)C(=O)CN(CC(C)C)C(=O)CN(CC(C)C)C(=O)CN(CCCOC(C)C)C(=O)CN(Cc1ccc(OC)cc1)C(=O)CNCc1ccc(OC)cc1)C(N)=O)C(=O)CN(CC(C)C)C(=O)CN(CC(C)C)C(=O)CN(CCCOC(C)C)C(=O)CN(Cc1ccc(OC)cc1)C(=O)CNCc1ccc(OC)cc1 (stereo not shown) [ACE2P2D1] (I: H-[N(4-MeOBn)Gly][N(4-MeOBn)Gly][N((CH2)3OiPr)Gly][Nleu][Nleu][Nme]KMK-NH2 / II: H-[N(4-MeOBn)Gly][N(4-MeOBn)Gly][N((CH2)3OiPr)Gly][Nleu][Nleu][Nme]KM; amide I:9-II:C; configuration not given here)	effective in inhibiting SARS-CoV-2 pseudovirus infection	increase in protein melting temperature	did not decrease the expression levels of ACE2 protein	did not decrease the ACE2 protein levels on cell surface	did not affect the enzymatic activity of ACE2	did not affect the enzymatic activity of ACE2	did not affect the enzymatic activity of ACE2	no effects on the viability	no effects on the viability	prevented the binding of spike protein to ACE2	no effects on ACE2 activity		
COCCN(CC(=O)NC(CCCCN)C(=O)NC(CCSC)C(N)=O)C(=O)CN(CC(C)C)C(=O)CN(CC(C)C)C(=O)CN(CCCOC(C)C)C(=O)CN(Cc1ccc(OC)cc1)C(=O)CNCc1ccc(OC)cc1 (stereo not shown) [ACE2P2] (H-[N(4-MeOBn)Gly][N(4-MeOBn)Gly][N((CH2)3OiPr)Gly][Nleu][Nleu][Nme]KM-NH2; configuration not given here)										increased the binding of spike protein to ACE2		bound only to red stained ACE2^+ cells	able to pull down the ACE2 protein
